# Test results as given in US8754073B2, “Substituted piperazino-dihydrothienopyrimidines” (Boehringer Ingelheim International GmbH, priority 2007, dated 2014).
# Target: PDE4B (Homo sapiens, UniProt Q07343)
# Assay: Scintillation Proximity Assay (SPA) of PDE4B enzyme activity ([H3]-cAMP cleavage)
# Format: biochemical
# Details: test substance 1 μM; one-hour incubation of [H3]-cAMP with PDE4B enzyme at 30° C.
# Summary of the method: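 Percent inhibition at 1 μM compound, measured against an uninhibited reaction. PDE4B hydrolysed tritiated cAMP for one hour at 30 °C, then scintillator beads were added to capture [H3]-5′-AMP. Light events were counted after 45 min bead settling.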
# PDE4B, sequence (Q07343 whole entry, species assumed): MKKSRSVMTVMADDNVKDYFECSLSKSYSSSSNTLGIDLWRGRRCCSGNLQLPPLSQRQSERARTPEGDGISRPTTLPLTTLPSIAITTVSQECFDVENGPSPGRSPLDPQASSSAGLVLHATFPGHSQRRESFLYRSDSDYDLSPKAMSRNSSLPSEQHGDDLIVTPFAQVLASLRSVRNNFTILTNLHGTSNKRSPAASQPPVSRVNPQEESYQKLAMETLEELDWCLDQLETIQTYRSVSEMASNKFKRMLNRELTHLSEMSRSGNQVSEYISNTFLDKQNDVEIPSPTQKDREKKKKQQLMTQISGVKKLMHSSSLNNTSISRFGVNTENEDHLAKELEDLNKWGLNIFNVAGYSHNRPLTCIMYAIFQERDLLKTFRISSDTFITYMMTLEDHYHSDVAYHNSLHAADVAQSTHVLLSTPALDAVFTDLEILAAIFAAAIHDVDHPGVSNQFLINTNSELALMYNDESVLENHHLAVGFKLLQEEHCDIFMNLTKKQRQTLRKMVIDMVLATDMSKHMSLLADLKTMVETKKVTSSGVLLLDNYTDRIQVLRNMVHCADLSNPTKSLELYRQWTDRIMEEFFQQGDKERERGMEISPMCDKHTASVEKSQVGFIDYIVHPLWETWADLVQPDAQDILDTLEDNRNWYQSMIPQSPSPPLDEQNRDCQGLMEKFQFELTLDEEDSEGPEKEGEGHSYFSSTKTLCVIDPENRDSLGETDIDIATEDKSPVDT
row,Structure (SMILES),inhibition at 1 µM
1,CC(C)[C@H](CO)Nc1nc(N2CCC(c3nc4cc(Cl)ccc4s3)CC2)nc2c1[S+]([O-])CC2 (stereo partly drawn) [Example 149],94%
2,O=C1Nc2ccccc2C2(CCN(c3nc4c(c(Nc5cccc(F)c5)n3)[S+]([O-])CC4)CC2)N1 (stereo not drawn) [Example 81],83%
3,"CC(C)[C@H](CO)Nc1nc(N2CCC3(CC2)c2ccccc2NC(=O)N3C)nc2c1[S+]([O-])CC2 (stereo partly drawn) [Example 14, (R)-1-(4-(1-Hydroxy-3-Methylbutan-2-Ylamino)-5-Oxo-6,7-Dihydro-5H-5λ^4-Thieno[3,2-d]Pyrimidin-2-Yl)-3′-Methyl-1′H-Spiro[Piperidin-4,4′-Quinazolin]-2′(3′H)-One]",60%
4,[O-][S+]1CCc2nc(N3CCC(c4ccc(F)cc4)CC3)nc(NC3CCOCC3)c21 (stereo not drawn) [Example 10],93%
5,[O-][S+]1CCc2nc(N3CCC(c4ccccc4F)CC3)nc(NC3CCOCC3)c21 (stereo not drawn) [Example 88],92%
6,CN1C[C@@H](Nc2nc(N3CCC(c4ccc(C#N)cc4)CC3)nc3c2[S+]([O-])CC3)CCC1=O (stereo partly drawn) [Example 49],96%
7,[O-][S+]1CCc2nc(N3CCC(c4noc5cc(F)ccc45)CC3)nc(Nc3cccc(F)c3)c21 (stereo not drawn) [Example 136],95%
8,CN1C[C@@H](Nc2nc(N3CCC(c4noc5ccccc45)CC3)nc3c2[S+]([O-])CC3)CCC1=O (stereo partly drawn) [Example 45],97%
9,"[O-][S+]1CCc2nc(N3CCC(c4noc5ccccc45)CC3)nc(Nc3cccc(F)c3)c21 (stereo not drawn) [Example 75, [2-(4-Benzo[d]Isoxazol-3-Yl-Piperidin-1-Yl)-5-Oxo-6,7-6,7-Dihydro-5H-5λ^4-Thieno[3,2-d]Pyrimidin-4-Yl]-(3-Fluorophenyl)-Amine]",97%
10,O=C1Nc2ccccc2C2(CCN(c3nc4c(c(NC5CCOCC5)n3)[S+]([O-])CC4)CC2)O1 (stereo not drawn) [Example 65],94%
11,CC(C)[C@H](CO)Nc1nc(N2CCC(c3nc(-c4cccnc4)no3)CC2)nc2c1[S+]([O-])CC2 (stereo partly drawn) [Example 162],92%
12,CC(C)[C@H](CO)Nc1nc(N2CCC3(CC2)OCc2ccccc23)nc2c1[S+]([O-])CC2 (stereo partly drawn) [Example 156],64%
13,CN1C[C@@H](Nc2nc(N3CCC(O)(c4cc(F)cc(F)c4)CC3)nc3c2[S+]([O-])CC3)CCC1=O (stereo partly drawn) [Example 47],97%
14,[O-][S+]1CCc2nc(N3CCC(c4ccc(F)cc4)CC3)nc(NC3(CO)CC3)c21 (stereo not drawn) [Example 11],94%
15,N#CC1(c2ccccc2)CCN(c2nc3c(c(Nc4cccc(F)c4)n2)[S+]([O-])CC3)CC1 (stereo not drawn) [Example 85],96%
16,[O-][S+]1CCc2nc(N3CCC(c4noc5ccc(F)cc45)CC3)nc(Nc3cccc(F)c3)c21 (stereo not drawn) [Example 137],95%
17,CC(C)[C@H](CO)Nc1nc(N2CCC3(CC2)CN(S(C)(=O)=O)c2ccccc23)nc2c1[S+]([O-])CC2 (stereo partly drawn) [Example 15],67%
18,CC(C)c1noc(C2CCN(c3nc4c(c(NC5CCOCC5)n3)[S+]([O-])CC4)CC2)n1 (stereo not drawn) [Example 129],93%
19,"CN1C(=O)Nc2ccccc2C12CCN(c1nc3c(c(NC4CCOCC4)n1)[S+]([O-])CC3)CC2 (stereo not drawn) [Example 58, 3′-Methyl-1-(4-(Tetrahydro-2H-Pyran-4-Ylamino)-5-Oxo-6,7-Dihydro-5H-5λ^4-Thieno[3,2-d]Pyrimidin-2-Yl)-1′H-Spiro[Piperidin-4,4′-Quinazolin]-2′(3′H)-One]",88%

# Same assay, conditions: test substance 1 μM; one-hour incubation with [H3]-cAMP at 30° C.
row,Structure (SMILES),inhibition at 1 µM
1,CC(C)c1ccccc1OC1CCN(c2nc3c(c(NC4CCOCC4)n2)[S+]([O-])CC3)CC1 (stereo not drawn) [Example 272],95%
2,CN1C[C@@H](Nc2nc(N3CCC(Oc4ccncc4)CC3)nc3c2[S+]([O-])CC3)CCC1=O (stereo partly drawn) [Example 264],94%
3,N#CC1(c2ccc(F)cc2)CCN(c2nc3c(c(NC4CCOCC4)n2)[S+]([O-])CC3)CC1 (stereo not drawn) [Example 293],86%
4,"CN1C[C@@H](Nc2nc(N3CCC(c4nc5cc(F)ccc5o4)CC3)nc3c2[S+]([O-])CC3)CCC1=O (stereo partly drawn) [Example 195, 5-{2-[4-(5-fluorobenzoxazol-2-yl)-piperidin-1-yl]-5-oxo-6,7-dihydro-5H-5λ^4-thieno[3,2-d]pyrimidin-4-ylamino}-1-methylpiperidin-2-one]",96%
5,Cc1nc(C2CCN(c3nc4c(c(NC5CCOCC5)n3)[S+]([O-])CC4)CC2)oc1-c1ccc(Cl)cc1 (stereo not drawn) [Example 282],87%
6,CN1C[C@@H](Nc2nc(N3CCC(C#N)(c4ccc(F)cc4)CC3)nc3c2[S+]([O-])CC3)CCC1=O (stereo partly drawn) [Example 294],88%
7,Cc1nn(C)c(C)c1CNC(=O)c1ccc(OC2CCN(c3nc4c(c(NC5CCOCC5)n3)[S+]([O-])CC4)CC2)cc1 (stereo not drawn) [Example 243],94%
8,[O-][S+]1CCc2nc(N3CCC(Oc4ccc5c(c4)OCO5)CC3)nc(NC3CCOCC3)c21 (stereo not drawn) [Example 174],92%
9,COC1(c2ccc(Cl)cc2)CCN(c2nc3c(c(N[C@@H](CO)C(C)C)n2)[S+]([O-])CC3)CC1 (stereo partly drawn) [Example 315],89%
10,[O-][S+]1CCc2nc(N3CCC(OCc4ccccc4)(c4ccc(Cl)cc4)CC3)nc(NC3(CO)CC3)c21 (stereo not drawn) [Example 320],92%
11,COC1CCN(c2nc3c(c(NC4CCOCC4)n2)[S+]([O-])CC3)CC1 (stereo not drawn) [Example 170],77%
12,"[O-][S+]1CCc2nc(N3CCC(Oc4ccc(C5=NCCO5)cc4)CC3)nc(NC3CCOCC3)c21 (stereo not drawn) [Example 180, (2-{4-[4-(4,5-dihydroxazol-2-yl)-phenoxy]-piperidin-1-yl}-5-oxo-6,7-dihydro-5H-5λ^4-thieno[3,2-d]pyrimidin-4-yl)-(tetrahydropyran-4-yl)-amine]",93%
13,"CCCN1C[C@@H](Nc2nc(N3CCC(c4ccc(Cl)cc4)CC3)nc3c2[S+]([O-])CC3)CCC1=O (stereo partly drawn) [Example 201, 5-{2-[4-(4-chlorophenyl)-piperidin-1-yl]-5-oxo-6,7-dihydro-5H-5λ^4-thieno[3,2-d]pyrimidin-4-ylamino}-1-propylpiperidin-2-one]",95%
14,"COC1(c2ccc(Cl)cc2)CCN(c2nc3c(c(N[C@H]4CCC(=O)N(C)C4)n2)[S+]([O-])CC3)CC1 (stereo partly drawn) [Example 261, 5-{2-[4-(4-chlorophenyl)-4-methoxypiperidin-1-yl]-5-oxo-6,7-dihydro-5H-5λ^4-thieno[3,2-d]pyrimidin-4-ylamino}-1-methylpiperidin-2-one]",95%
15,Cn1cc(C2CCN(c3nc4c(c(NC5CCOCC5)n3)[S+]([O-])CC4)CC2)c2ccccc21 (stereo not drawn) [Example 193],96%
16,"COC(=O)C1(c2ccccc2)CCN(c2nc3c(c(N[C@H]4CCC(=O)N(C)C4)n2)[S+]([O-])CC3)CC1 (stereo partly drawn) [Example 205, methyl 1-[4-(1-methyl-6-oxopiperidin-3-ylamino)-5-oxo-6,7-dihydro-5H-5λ^4-thieno[3,2-d]pyrimidin-2-yl]-4-phenylpiperidine-4-carboxylate]",96%

row,Structure (SMILES),inhibition at 1 µM
1,[O-][S+]1CCc2nc(N3CCC(c4nc5cc(F)ccc5[nH]4)CC3)nc(NC3CCOCC3)c21 (stereo not drawn) [Example 209],95%
2,CN1CCC(N(C)C(=O)c2cccc(C3CCN(c4nc5c(c(NC6CCOCC6)n4)[S+]([O-])CC5)CC3)c2)CC1 (stereo not drawn) [Example 248],88%
3,"CN(C)CC(=O)NCC1(c2ccccc2)CCN(c2nc3c(c(N[C@H]4CCC(=O)N(C)C4)n2)[S+]([O-])CC3)CC1 (stereo partly drawn) [Example 206, 2-dimethylamino-N-{1-[4-(1-methyl-6-oxopiperidin-3-ylamino)-5-oxo-6,7-dihydro-5H-5λ^4-thieno[3,2-d]pyrimidin-2-yl]-4-phenylpiperidin-4-ylmethyl}-acetamide]",95%
4,Cc1nn(C)c(C)c1CNC(=O)c1cccc(C2CCN(c3nc4c(c(NC5CCOCC5)n3)[S+]([O-])CC4)CC2)c1 (stereo not drawn) [Example 250],92%
5,CS(=O)(=O)NCC1(c2ccccc2)CCN(c2nc3c(c(Nc4cccc(F)c4)n2)[S+]([O-])CC3)CC1 (stereo not drawn) [Example 327],83%
6,[O-][S+]1CCc2nc(N3CCC(c4nnc(-c5ccccc5)o4)CC3)nc(NC3(CO)CC3)c21 (stereo not drawn) [Example 318],91%
7,[O-][S+]1CCc2nc(N3CCC(c4nc5ccc(Cl)cc5[nH]4)CC3)nc(NC3CCOCC3)c21 (stereo not drawn) [Example 191],96%
8,"Cc1nc(C2CCN(c3nc4c(c(NC5(CO)CC5)n3)[S+]([O-])CC4)CC2)oc1-c1ccc(Cl)cc1 (stereo not drawn) [Example 283, [1-(2-{4-[5-(4-chlorophenyl)-4-methyloxazol-2-yl]-piperidin-1-yl}-5-oxo-6,7-dihydro-5H-5λ^4-thieno[3,2-d]pyrimidin-4-ylamino)-cyclopropyl]-methanol]",89%
9,Cc1oc(C2CCN(c3nc4c(c(NC5CCOCC5)n3)[S+]([O-])CC4)CC2)nc1-c1ccccc1 (stereo not drawn) [Example 276],95%
10,[O-][S+]1CCc2nc(N3CCC(c4nnc(-c5ccccc5)o4)CC3)nc(NC3CCOCC3)c21 (stereo not drawn) [Example 317],95%
11,Cc1nn(C)cc1CNC(=O)c1cccc(C2CCN(c3nc4c(c(NC5CCOCC5)n3)[S+]([O-])CC4)CC2)c1 (stereo not drawn) [Example 259],92%
12,COC(=O)c1cccc(OC2CCN(c3nc4c(c(NC5CCOCC5)n3)[S+]([O-])CC4)CC2)c1 (stereo not drawn) [Example 177],93%
13,Cc1nn(C)cc1C(C)NC(=O)c1ccc(C2CCN(c3nc4c(c(NC5CCOCC5)n3)[S+]([O-])CC4)CC2)cc1 (stereo not drawn) [Example 218],94%
14,CN(CC1(c2ccccc2)CCN(c2nc3c(c(Nc4cccc(F)c4)n2)[S+]([O-])CC3)CC1)S(C)(=O)=O (stereo not drawn) [Example 332],93%
15,[O-][S+]1CCc2nc(N3CCC(CO)(c4ccc(Cl)cc4)CC3)nc(NC3(CO)CC3)c21 (stereo not drawn) [Example 301],92%
16,"CC(C)(C)OC(=O)N[C@@H]1CC1Nc1nc(N2CCC(c3ccc(Cl)cc3)CC2)nc2c1[S+]([O-])CC2 (stereo partly drawn) [Example 222, tert-butyl (2-{2-[4-(4-chlorophenyl)-piperidin-1-yl]-5-oxo-6,7-dihydro-5H-5λ^4-thieno[3,2-d]pyrimidin-4-ylamino}-cyclopropyl)-carbamidate]",89%
